Data from PMC5078989, “Targeted inhibition of the COP9 signalosome for treatment of cancer” (Nature Communications, 2016).

System: panel of cancer cell lines
Test: Cell viability (CellTiter-Glo) dose-response across cancer cell line panel;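 also: after 72 h compound incubation with CellTiter-Glo ATP readout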
Assay type: cell-based, human
Conditions: Homo sapiens
From the text: Next, we explored the effect of CSN5 inhibition on the viability of cancer cells. To obtain a comprehensive picture, we generated dose–response curves with a CSN5 inhibitor across more than 500 cancer cell lines in a previously described standardized setting[47] (Supplementary Data 1).
A standardized CellTiter-Glo Assay (Promega #G7570) based on the quantification of ATP was applied according to the manufacturer's protocol to measure the amount of viable cells in culture. In brief, cells were seeded into 384-well plates at optimal density for each cell line. After 4 h, compounds were added at different concentrations in growth medium and incubated for another 72 h in a humidifying chamber at 37 °C and 5% CO2. […] EC50 values were calculated from the plot of percentage of inhibition versus inhibitor concentration using the nonlinear regression analysis software Origin 7.5SR6 (OriginLab Corp.).

- EC50 (HCC1500, HCC1500): 5.16 nM
- EC50 (HCC1569, HCC1569): 6.77 nM
- EC50 (HCC1806, HCC1806): 24.8 nM
- EC50 (HCC1937, HCC1937): 7.46 nM
- EC50 (HCC1954, HCC1954): 3.14 nM
- EC50 (HCC2218, HCC2218): 9.79 nM
- EC50 (HCT-15, HCT-15): 26.6 nM
- EC50 (HCT-116, HCT 116): 6.91 nM
- EC50 (HEC-1-A, cell line HEC-1-A): 15.5 nM
- EC50 (HEC-6, HEC-6): 21.4 nM
- EC50 (HEC-50B): 25.2 nM
- EC50 (HEC-59): 7.32 nM
- EC50 (HEC-151): 21.6 nM
- EC50 (HEC-251, HEC-251): 9.46 nM
- EC50 (HEC-265): 17 nM
- EC50 (HEL 92.1.7, HEL 92.1.7): 5.21 nM
- EC50 (HEY A8, Hey-A8): 56.7 nM
- EC50 (HGC-27, HGC-27): 16.2 nM
- EC50 (HLC-1): 11.1 nM
- EC50 (HLF): 13.8 nM
- EC50 (HMC-1-8): 7.01 nM
- EC50 (HMCB): 9.61 nM
- EC50 (HPBALL, HPB-ALL): 3.18 nM
- EC50 (HRT-18, HRT-18): 53.1 nM
- EC50 (HT): 1.72 nM
- EC50 (HT55, HT55): 31 nM
- EC50 (HT115, HT115): 8.52 nM
- EC50 (HT-29, HT-29): 18.4 nM
- EC50 (HT-144, HT-144): 8.93 nM
- EC50 (HT-1080, HT-1080): 20.1 nM
- EC50 (HT-1376, HT-1376): 18.1 nM
- EC50 (HTK-): 17.1 nM
- EC50 (Hs 294T): 11.4 nM
- EC50 (Hs 571.T): 10.2 nM
- EC50 (Hs 611.T): 6.13 nM
- EC50 (Hs 695T): 3.73 nM
- EC50 (Hs 729): 7.87 nM
- EC50 (Hs766T, Hs 766T): 19.8 nM
- EC50 (Hs 936.T): 8.25 nM
- EC50 (Hs 939.T): 4.42 nM
- EC50 (Hs 940.T): 3.97 nM
- EC50 (Hs 944.T): 12.7 nM
- EC50 (Hs-578T, Hs 578T): 10.3 nM
- EC50 (HuH-1, cell line huH-1): 44.7 nM
- EC50 (HuP-T3, HUP-T3): 7.39 nM
- EC50 (IGR-1, IGR-1): 8.66 nM
- EC50 (IGR-37, IGR-37): 8.3 nM
- EC50 (IGR-39, IGR-39): 7.6 nM
- EC50 (IGROV-1, IGROV1): 26.8 nM
- EC50 (IMR-32, IMR-32): 5.94 nM
- EC50 (IPC-298, cell line IPC-298): 9.44 nM
- EC50 (Ishikawa, Ishikawa (Heraklio) 02 ER-): 16.1 nM
- EC50 (J82, J82): 11.9 nM
- EC50 (JHH7, cell line JHH-7): 10.2 nM
- EC50 (JHH-2, cell line JHH-2): 18.3 nM
- EC50 (JHOM-1): 4.86 nM
- EC50 (JHUEM-2): 5.6 nM
- EC50 (JIMT-1, JIMT-1): 13.9 nM
- EC50 (JJN-3, JJN-3): 2.61 nM
- EC50 (JVM-2, JVM-2): 4.69 nM
- EC50 (JVM-3, JVM-3): 8.69 nM
- EC50 (JeKo-1, JeKo-1): 7.3 nM
- EC50 (Jurkat): 9.14 nM
- EC50 (K029AX): 4.76 nM
- EC50 (K562, K-562): 16.3 nM
- EC50 (KARPAS-299, KARPAS-299): 5.88 nM
- EC50 (KARPAS-422, KARPAS-422): 6.19 nM
- EC50 (KASUMI-2): 3.8 nM
- EC50 (KATO III, cell line KATO III): 7.88 nM
- EC50 (KCL-22, KCL-22): 4.19 nM
- EC50 (KHM-1B): 4.04 nM
- EC50 (KLE): 12.8 nM
- EC50 (KM12, KM12): 23.9 nM
- EC50 (KMM-1, KMM-1): 4.45 nM
- EC50 (KMRC-1, KMRC-1): 6.75 nM
- EC50 (KMRC-20): 10.1 nM
- EC50 (KMS-11, KMS-11): 3.19 nM
- EC50 (KMS-12-BM): 5.34 nM
- EC50 (KMS-26, KMS-26): 11.5 nM
- EC50 (KMS-28BM): 3.85 nM
- EC50 (KMS-34, KMS-34): 12.2 nM
- EC50 (KNS-62, KNS-62): 19.3 nM
- EC50 (KO52): 2.37 nM
- EC50 (KP-1N): 7.49 nM
- EC50 (KP-1NL): 9.41 nM
- EC50 (KP-N-SI9s): 8.48 nM
- EC50 (KP-N-YN): 20.2 nM
- EC50 (KPL-1, KPL-1): 20.5 nM
- EC50 (KU812, KU812): 4 nM
- EC50 (KYM-1): 4.88 nM
- EC50 (KYO1, KYO-1): 6.59 nM
- EC50 (KYSE-30, KYSE-30): 7.82 nM
- EC50 (KYSE-70, cell line KYSE-70): 18 nM
- EC50 (KYSE-150, cell line KYSE-150): 6.63 nM
- EC50 (KYSE-270, cell line KYSE-270): 10.3 nM
- EC50 (KYSE-410, cell line KYSE-410): 21.2 nM
- EC50 (KYSE-450, KYSE-450): 16 nM
- EC50 (KYSE-510, cell line KYSE-510): 11.9 nM
- EC50 (KYSE-520, cell line KYSE-520): 13.4 nM
- EC50 (Karpas-620, KARPAS-620): 6.17 nM
- EC50 (Kelly): 3.53 nM
- EC50 (Ki-JK): 4.34 nM
- EC50 (L3.3): 29.6 nM
- EC50 (L-363, L-363): 5.51 nM
- EC50 (LAMA-84, LAMA-84): 5.36 nM
- EC50 (LCLC-97TM1, LCLC-97TM1): 8.39 nM
- EC50 (LCLC-103H): 10.1 nM
- EC50 (LK-2, LK-2): 11.7 nM
- EC50 (LMSU): 10.3 nM
- EC50 (LN-18, LN-18): 15.3 nM
- EC50 (LN-229, LN-229): 8.7 nM
- EC50 (LOX IMVI): 26.4 nM
- EC50 (LP-1, LP-1): 5.99 nM
- EC50 (LS180, LS 180): 16.4 nM
- EC50 (LS-411N, LS411N): 17.3 nM
- EC50 (LXF-289, LXF-289): 14.3 nM
- EC50 (Li-7, Li-7): 15.6 nM
- EC50 (LoVo): 13.4 nM
- EC50 (Loucy): 2.54 nM
- EC50 (Lu-65, LU65): 7.61 nM
- EC50 (Lu-99, LU99): 15.4 nM
- EC50 (MB 157): 6.39 nM
- EC50 (MC116, cell line MC116): 9.81 nM
- EC50 (MCAS): 8.1 nM
- EC50 (MCF7, MCF7): 38 nM
- EC50 (MDA-MB-175-VII): 10.3 nM
- EC50 (MDA-MB-231, MDA-MB-231): 10.9 nM
- EC50 (MDA-MB-415, MDA-MB-415): 16.1 nM
- EC50 (MDA-MB-436, MDA-MB-436): 12.6 nM
- EC50 (MDA-MB-453, MDA-MB-453): 6.73 nM
- EC50 (MDA-MB-468, MDA-MB-468): 5.97 nM
- EC50 (MDST8, MDST8): 8.17 nM
- EC50 (MEC1, MEC-1): 4.98 nM
- EC50 (MEG-01, MEG-01): 8.7 nM
- EC50 (MEL-JUSO): 10.6 nM
- EC50 (MFE-296, cell line MFE-296): 19.8 nM
- EC50 (MG-63, MG-63): 5.92 nM
- EC50 (MHH-NB-11): 10.4 nM
- EC50 (MIA PaCa-2, cell line MIA PaCa-2): 15.1 nM
- EC50 (MINO): 6.8 nM
- EC50 (MKN-1, cell line MKN1): 6.81 nM
- EC50 (MKN-7, cell line MKN7): 7.08 nM
- EC50 (MKN-45, cell line MKN-45): 8.03 nM
- EC50 (MKN-74, cell line MKN74): 8.77 nM
- EC50 (MM1.S, cell line MM1-S): 2 nM
- EC50 (MOLM16, MOLM-16): 1.95 nM
- EC50 (MOLM-13, MOLM-13): 5.21 nM
- EC50 (MOLP-8, MOLP-8): 7.29 nM
- EC50 (MOLT-16, MOLT-16): 1.73 nM
- EC50 (MONO-MAC-6, MONO-MAC-6): 10.9 nM
- EC50 (MOR/CPR): 39.6 nM
- EC50 (MSTO-211H, cell line MSTO-211H): 22 nM
- EC50 (MV4-11, cell line MV-4-11): 5.18 nM
- EC50 (Malme-3M): 3.27 nM
- EC50 (Maver1, cell line MAVER-1): 6.73 nM
- EC50 (MeWo, cell line MeWo): 8.08 nM
- EC50 (Mel202, cell line Mel202): 10.1 nM
- EC50 (Mono-Mac-1, MONO-MAC-1): 7.98 nM
SMILES: CC(C)C[C@H](NC(=O)[C@H](Cc1ccccc1)NC(=O)c1cnccn1)B(O)O [Bortezomib]
